Data taken from patent US11434492B2, “Ribosome-mediated incorporation of peptides and peptidomimetics” (Arizona Board of Regents on behalf of Arizona State …, priority 2015, dated 2022).
“And” between values parts separate entries of the source, which are not always exact repeats. Equal entries are not always repeated. Peptide text beside a SMILES is read from it.

Assays:
[1] = tested on: modified ribosomes (23S rRNA modified); experiment: In vitro translation: suppression of UAG codon at position 10 of DHFR mRNA, S-30 systems having modified ribosomes; format: biochemical, E. coli; settings: for Suppression efficiency in different S-30 systems, having modified ribosomes (%): position 10 of E. coli DHFR, relative to wild-type DHFR = 100
Description: Preparation of Aminoacyl-tRNACUAs. The activation of suppressor tRNACUAs was carried out as described previously.^4,5 Briefly, 100-μL reaction mixture of 100 mM Na Hepes, pH 7.5, contained 1.0 mM ATP, 15 mM MgCl2, 100 μg of suppressor tRNACUA-COH, 0.5 A260 unit of N-pentenoyl-protected aminoacyl-pdCpA, 15% DMSO, and 100 units of T4 RNA ligase. The reaction mixture was incubated at 37° C. for 1.5 h and quenched by the addition of 0.1 vol of 3 M NaOAc, pH 5.2. The N-protected aminoacylated tRNA was precipitated with 3 vol of cold ethanol. The efficiency of ligation was estimated by 8% polyarylamide-7 M urea gel electrophoresis (pH 5.0).
The N-pentenoyl-protected aminoacyl-tRNACUAs were deprotected by treatment with 5 mM aqueous […] at 25° C. for 15 min. The solution was centrifuged, and the supernatant was adjusted to 0.3 M NaOAc and treated with 3 vol of cold ethanol to precipitate the aminoacylated tRNA. The tRNA pellet was collected by centrifugation, washed with 70% aq EtOH, air dried and dissolved in 20 μL of RNase free water.
Preparation of S-30 Extracts from Cells Having Modified Ribosomes. Aliquots (5-10 μL) from liquid stocks of E. coli BL-21 (DE-3) cells, harboring plasmids with a wild-type or modified rrnB gene, were placed on LB agar supplemented with 100 µg/mL of ampicillin and grown at 37° C. for 16-18 h. One colony was picked from each agar plate and transferred into 3 mL of LB medium supplemented with 100 μg/mL of ampicillin and 0.5 mM IPTG.
(§1) In vitro Protein Translation. Protein translation reactions were carried out in 12-2000 μL of incubation mixture containing 0.4 μL/μL of S-30 system, 100 ng/μL of plasmid, 35 mM Tris acetate, pH 7.4, 190 mM potassium glutamate, 30 mM ammonium acetate, 2 mM DTT, 0.2 mg/mL total E. coli tRNA, 3.5% PEG 6000, 20 μg/mL folinic acid, 20 mM ATP and GTP, 5 mM CTP and UTP, 100 μM amino acids mixture, 0.5 μCi/μL of ^35S-methionine for analytical purposes only and 1 μg/mL rifampicin. In the case of plasmids having a gene with a TAG codon, a suppressor tRNA was added to a concentration of 0.8 μg/μL. Reactions were carried out at 37° C. for 1 h (for 12 μL reaction mixtures) to 1.5 h (for 2000 μL reaction mixtures) and terminated by chilling on ice. Aliquots from in vitro translation mixtures were analyzed by SDS-PAGE followed by quantification of the radioactive bands by phosphorimager analysis.
Incorporation of Dipeptides 2, 3 and 4 into DHFR Using the Modified Ribosomes. Initially, glycylphenylalanine (2) was chosen to screen the selected modified ribosomes for their ability to incorporate a dipeptide into DHFR. It was anticipated that minimal steric hindrance and more flexibility at the N-terminus of the dipeptide (a glycine residue) would enable optimal positioning of the amine for a nucleophilic attack in the PTC of the modified ribosomes. A modified DHFR construct, having a TAG codon in position 10 (pETDH10 plasmid) was used for the incorporation of glycylphenylalanine.
The suppression efficiencies were expressed relative to the wild-type DHFR synthesis. As a negative control, wild-type DHFR synthesis in the presence of nonacylated-tRNACUA was measured for each experiment. The amounts of DHFR produced were quantified with a phosphoimager, which monitored the incorporation of ^35S-methionine into DHFR. Using glycylphenylalanyl-tRNACUA, S-30 preparations having the modified ribosomes from clone groups 1, 2, 3 and 9 produced full length DHFR in ˜9% yields relative to the wild-type DHFR synthesis (Table 3). The modified ribosomes from clone groups 4-8 incorporated glycylphenylalanine (2) with low yields (˜2-4%). For dipeptide 2, best incorporation yields (up to 12%) were obtained by S-30 system having modified ribosomes from clone group 9 (2057AGUGAGA2063 and 2502AUCCGA2507).

[2] = tested on: E. coli clones having mutations in two regions of the PTC in the 23S rRNA (modified ribosomes); experiment: Inhibition of cell growth by dipeptidyl-puromycin aminonucleoside 1 (selection of modified ribosomes); format: cell-based; settings: 100 μg/mL 1
Description: Selection of Modified Ribosomes using Dipeptidyl-puromycin Aminonucleoside The selection experiments were carried on in a fashion similar to that described previously. (1) Briefly, library from 419 clones, having mutations in two regions of the PTC in the 23S rRNA (2057-2063 and 2496-2501 or 2502-2507) and organized in five 96 well plates (“master plates”), were used for selection of variants with modified ribosome. Three new plates were prepared for each “master plate” by transferring 2 μL of culture from each well of the master plate to the corresponding well of new plate and 98 μL assay solution was added to each well.
A solution without any puromycin derivative was used for control plate. All plates were incubated at 37° C. for 16-18 h in a thermostated shaker, and extent of cell growth was estimated by measuring the optical density at 600 nm. Inhibition of cell growth by 1 was estimated as described in previously. Clones with inhibition value more than 50% were taken for verification. […] Plates were incubated at 37° C. for 16-18 h in a thermostated shaker, extent of cell growth was estimated by measuring the optical density at 600 nm and IC50 data was calculated for each culture.
It was anticipated that the ribosomes of those clones which show sensitivity for 1 would be more likely to accommodate dipeptides or dipeptidomimetics in the PTC during peptide synthesis. […] Plasmids from these clones were isolated and sequenced.

[3] = tested on: modified ribosomes from clone 010326R6; experiment: In vitro translation: suppression of TAG codon at position 66 of GFP (pETGFP66), S-30 from clone 010326R6; format: biochemical, Escherichia coli
Description: as §1
The free amino acids both have λex in the range 296-302 nm but the λem of 7 is somewhat red-shifted compared to that of 6. […] As a negative control, wild-type GFP synthesis from the modified mRNA in the presence of nonacylated tRNACUA was measured for each experiment. The amounts of GFP produced were quantified with a phosphoimager, which monitored the incorporation of ^35S-methionine into proteins. […]

wild-type ribosomes = experiment: In vitro translation: suppression of UAG codon at position 10 of DHFR mRNA, S-30 preparation having wild-type ribosomes; format: biochemical, E. coli; settings: compared to wild-type DHFR synthesis
Description: as §1
Incorporation of Glycylphenylalanine (2) Using the Wild-Type Ribosome. The wild-type ribosomes synthesize polypeptide chains by incorporating one α-L-amino acid at a time via one monoacylated tRNA for each corresponding codon in the mRNA transcript.^6 Ribosome mediated sequential incorporation of two amino acids for one codon using bisacylated tRNAs has not been reported to date. […]

Compound: phenylalanylphenylalanyl [dipeptide 4]
- Suppression efficiency in different S-30 systems, having modified ribosomes (%) ([1]; clone group 1): ~4%

Compound: COc1ccc(C[C@H](N)C(=O)NCC(=O)N[C@H]2[C@@H](O)[C@H](n3cnc4c(N(C)C)ncnc43)O[C@@H]2CO)cc1 [puromycin derivative 1, 9-[3″-Deoxy-3″-(O-methyl-(S)-tyrosylglycyl)-β-D-ribofuranosyl]-6-(N,N″ dimethylamino)purine]
- Inhibition by Puromycin Derivative 1 (%) ([2]; Wild-type ribosomes): <1%
- Inhibition by Puromycin Derivative 1 (%) ([2]; clone 010309R3 (clone group 1)): 63.2%
- Inhibition by Puromycin Derivative 1 (%) ([2]; clone 010310R1 (clone group 4)): 52.9%
- Inhibition by Puromycin Derivative 1 (%) ([2]; clone 010310R4 (clone group 2)): 52.9%
- Inhibition by Puromycin Derivative 1 (%) ([2]; clone 010322 (clone group 1)): 77%
- Inhibition by Puromycin Derivative 1 (%) ([2]; clone 010326R1 (clone group 5)): 50.4%
- Inhibition by Puromycin Derivative 1 (%) ([2]; clone 010326R5 (clone group 3)): 50.4%
- Inhibition by Puromycin Derivative 1 (%) ([2]; clone 010326R6 (clone group 1)): 50.4%
- Inhibition by Puromycin Derivative 1 (%) ([2]; clone 010328R2 (clone group 5)): 77%
- Inhibition by Puromycin Derivative 1 (%) ([2]; clone 010328R4 (clone group 1)): 61%
- Inhibition by Puromycin Derivative 1 (%) ([2]; clone 040322 (clone group 6)): 54%
- Inhibition by Puromycin Derivative 1 (%) ([2]; clone 040329 (clone group 7)): 54%
- Inhibition by Puromycin Derivative 1 (%) ([2]; clone 040338 (clone group 8)): 56%
- Inhibition by Puromycin Derivative 1 (%) ([2]; clone 080337 (clone group 9)): 51%

Compound: COc1ccc(-c2sc(CN)nc2C(=O)O)cc1 [dipeptidomimetic 7]
- suppression yield (full length GFP) relative to wild-type GFP synthesis [3]: ~3.5%

Compound: NCC(=O)N[C@@H](Cc1ccccc1)C(=O)O [dipeptide 2, glycylphenylalanine] (H-Gly-Phe-OH)
- Suppression efficiency in different S-30 systems, having modified ribosomes (%) ([1]; clone group 1): ~9% and 8.4 ± 1.6%
- Suppression efficiency in different S-30 systems, having modified ribosomes (%) ([1]; clone group 2): ~8% and 9.5 ± 0.5%
- Suppression efficiency in different S-30 systems, having modified ribosomes (%) ([1]; clone group 3): 9% and 8.6 ± 1.5%
- Suppression efficiency in different S-30 systems, having modified ribosomes (%) ([1]; clone group 4): 3.1 ± 0.2%
- Suppression efficiency in different S-30 systems, having modified ribosomes (%) ([1]; clone group 5): 4.5 ± 0.7%
- Suppression efficiency in different S-30 systems, having modified ribosomes (%) ([1]; clone group 6): 3.5%
- Suppression efficiency in different S-30 systems, having modified ribosomes (%) ([1]; clone group 7): 2.1 ± 0.1%
- Suppression efficiency in different S-30 systems, having modified ribosomes (%) ([1]; clone group 8): 2.2%
- full length DHFR yield relative to the wild-type DHFR synthesis ([1]; clone groups 1, 2, 3 and 9, position 10 of DHFR): ~9%
- incorporation yield relative to the wild-type DHFR synthesis ([1]; clone groups 4-8, position 10 of DHFR): 2-4%
- suppression efficiency (wild-type ribosomes): ~2%

Compound: N[C@@H](Cc1ccccc1)C(=O)NCC(=O)O [dipeptide 3, phenylalanylglycine] (H-Phe-Gly-OH)
- Suppression efficiency in different S-30 systems, having modified ribosomes (%) ([1]; clone group 1): ~14% and 13.9 ± 1.7%
- Suppression efficiency in different S-30 systems, having modified ribosomes (%) ([1]; clone group 2): ~12% and 10.6 ± 0.5%
- Suppression efficiency in different S-30 systems, having modified ribosomes (%) ([1]; clone group 3): 10% and 12.7 ± 2.5%
- Suppression efficiency in different S-30 systems, having modified ribosomes (%) ([1]; clone group 9): ~13% and 13.3 ± 2.5%
